PMC10458824, “Identification of Xanthine Oxidase Inhibitors from Celery Seeds Using Affinity Ultrafiltration–Liquid Chromatography–Mass Spectrometry” (Molecules, 2023)
Values joined by “and” are separate entries in the source; they are usually repeats but may differ in a detail not shown here. Equal values may be shown once.

How the values were obtained:
[1] = target: T1, Xanthine oxidase (XOD), febuxostat binding domain (Bos taurus, UniProt P80457); assay: Affinity ultrafiltration LC-MS (UF-LC-MS) screening, febuxostat-masked vs unmasked XOD; conditions: peak area with vs without febuxostat preincubation of XOD; extract 2 mg/mL
T1 construct: purchased Sigma-Aldrich Co., Ltd. (St. Louis, MO, USA)
T1 sequence (P80457 whole entry, the tested form may be a part): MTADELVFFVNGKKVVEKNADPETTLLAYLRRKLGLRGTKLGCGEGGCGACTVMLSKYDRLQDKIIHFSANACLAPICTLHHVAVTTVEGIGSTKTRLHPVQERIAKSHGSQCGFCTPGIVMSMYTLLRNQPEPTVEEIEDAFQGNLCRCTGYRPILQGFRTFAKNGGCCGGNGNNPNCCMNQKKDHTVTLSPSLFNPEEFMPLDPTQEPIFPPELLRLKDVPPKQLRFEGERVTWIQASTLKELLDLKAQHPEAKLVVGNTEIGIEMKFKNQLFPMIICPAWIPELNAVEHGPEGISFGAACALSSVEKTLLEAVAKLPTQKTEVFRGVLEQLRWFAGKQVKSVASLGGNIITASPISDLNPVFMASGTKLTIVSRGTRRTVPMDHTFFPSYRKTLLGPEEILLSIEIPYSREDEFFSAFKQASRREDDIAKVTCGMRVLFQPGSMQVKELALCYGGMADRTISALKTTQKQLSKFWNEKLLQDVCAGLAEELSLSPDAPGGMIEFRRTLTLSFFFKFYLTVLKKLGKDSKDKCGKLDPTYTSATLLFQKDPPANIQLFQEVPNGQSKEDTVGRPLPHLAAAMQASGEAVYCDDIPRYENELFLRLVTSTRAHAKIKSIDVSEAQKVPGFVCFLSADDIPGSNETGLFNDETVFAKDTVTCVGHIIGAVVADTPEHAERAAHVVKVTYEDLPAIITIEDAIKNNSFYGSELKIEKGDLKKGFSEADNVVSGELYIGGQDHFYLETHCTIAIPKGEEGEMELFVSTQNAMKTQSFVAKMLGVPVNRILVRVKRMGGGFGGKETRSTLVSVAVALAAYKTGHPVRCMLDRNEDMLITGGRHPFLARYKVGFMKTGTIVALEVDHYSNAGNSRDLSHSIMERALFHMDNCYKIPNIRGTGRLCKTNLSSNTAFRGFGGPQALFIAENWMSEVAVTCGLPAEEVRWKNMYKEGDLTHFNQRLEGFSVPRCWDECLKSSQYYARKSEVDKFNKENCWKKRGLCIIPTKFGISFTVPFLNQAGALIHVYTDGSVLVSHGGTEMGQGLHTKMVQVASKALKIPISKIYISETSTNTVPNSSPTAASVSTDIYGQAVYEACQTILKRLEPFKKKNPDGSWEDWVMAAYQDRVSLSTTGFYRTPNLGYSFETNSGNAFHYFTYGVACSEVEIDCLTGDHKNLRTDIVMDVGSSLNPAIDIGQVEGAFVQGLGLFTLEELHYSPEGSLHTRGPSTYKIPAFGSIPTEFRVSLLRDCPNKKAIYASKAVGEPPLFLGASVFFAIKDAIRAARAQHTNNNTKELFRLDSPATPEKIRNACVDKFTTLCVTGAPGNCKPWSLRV
Description: Based on the variation in the chromatogram with and without febuxostat binding in the XOD, the binding degree was used to evaluate the febuxostat competitive capacity of compounds in celery seeds. The binding degree (BD) was calculated as follows: BD(%)=Af−Ano_f/Af×100%
Af and Ano_f represent the peak area of compounds in the chromatogram with and without preincubation with febuxostat, respectively.
Identification of potential XOD inhibitors from celery seed extract was performed using UF–LC–MS according to a previous study with modification. To prepare the XOD interaction solution, 250 μL of XOD (0.5 U/mL) was incubated with 50 μL of febuxostat (the XOD inhibitor, 500 μg/mL in 10% DMSO-PBS, masked group) to mask the druggable binding domain of XOD or 10% DMSO-PBS (vehicle control, unmasked group) at 37 °C for 45 min. The extract (50 μL at 2 mg/mL in methanol) was then added to the interaction solution for a further 45 min. After incubation, the mixtures were transferred to a 10 kDa molecule weight cut-off ultrafiltration filter and centrifuged at 14,500 rpm for 20 min. The membrane was washed 3 times with 450 μL ddH2O to remove the unbound molecules. […] The elution solution was then ultrafiltered in the new filter units as described above. The final products in the bottom of the filter units were analyzed using a HPLC–MS system.

Xanthine oxidase (XOD) = target: T2, Xanthine oxidase (XOD) (Bos taurus, UniProt P80457); assay: XOD activity assay (absorbance at 290 nm, xanthine substrate); type: biochemical; conditions: XOD 0.02 U/mL, xanthine 0.48 mM, 37 °C, OD 290 nm; read-out: IC50 of XOD inhibition
T2 construct: purchased Sigma-Aldrich Co., Ltd. (St. Louis, MO, USA)
T2 sequence (P80457 whole entry): as the sequence (P80457 whole entry, the tested form may be a part) above
Description: The inhibitory effects of compounds were determined in the XOD activity assay according to a previous report with minor modifications. Celery seed extracts or the “hit” compounds from the UF–LC–MS screening assay were dissolved in PBS and prepared for a series of test solutions using 2-fold serial dilutions. Test solutions (50 μL) were mixed with XOD (50 μL at 0.02 U/mL) and incubated at 37 °C for 5 min. This was followed by the addition of XOD substrate xanthine (150 μL at 0.48 mM) and further incubation at 37 °C for 30 min. The optical density (OD) of each tube was then measured at 290 nm. Percent XOD inhibition was calculated using the following formula: %=1−A1−A2/A3−A4×100 where A1 was the absorbance of the production with the sample and XOD, A2 was the absorbance of the production with the sample, A3 was the absorbance of the production with PBS and XOD, and A4 was the absorbance of the production with PBS.

Row | Structure (SMILES) | binding degree (BD) [1] | IC50 (Xanthine oxidase (XOD))
1 | O=c1cc(-c2ccc(O)c(O)c2)oc2cc(O[C@@H]3O[C@H](CO)[C@@H](O)[C@H](O)[C@H]3O[C@@H]3OC[C@](O)(CO)[C@H]3O)cc(O)c12 [Compound 9, Luteolin 7-O-apiosylglucoside] | 89.1% | 3140 µM
2 | O=c1cc(-c2ccc(O)c(O)c2)oc2cc(O[C@@H]3O[C@H](CO)[C@@H](O)[C@H](O)[C@H]3O)cc(O)c12 [Compound 10, Luteolin 7-O-glucoside] | 95.9% | 976 µM
3 | CCCC[C@H]1OC(=O)C2=C1CC[C@H](O)[C@H]2O [Compound 11, Senkyunolide J] | 50.5% | –
4 | C[C@@]1(O)CO[C@@H](O[C@H]2[C@H](Oc3cc(O)c4c(=O)cc(-c5ccc(O)c(O)c5)oc4c3)O[C@H](COC(=O)CC(=O)O)[C@@H](O)[C@@H]2O)[C@@H]1O [Compound 14, Luteolin 7-O-malonyl-apiosylglucoside] | 93.6% | –
5 | O=C(O)CC(=O)OC[C@H]1O[C@@H](Oc2cc(O)c3c(=O)cc(-c4ccc(O)c(O)c4)oc3c2)[C@H](O)[C@@H](O)[C@@H]1O [Compound 15, Luteolin 7-O-6′-malonyl glucoside] | 99.0% | 2020 µM
6 | O=C(O)CC(=O)OC[C@H]1O[C@@H](Oc2cc(O)c3c(=O)cc(-c4ccc(O)cc4)oc3c2)[C@H](O[C@@H]2OC[C@](O)(CO)[C@H]2O)[C@@H](O)[C@@H]1O [Compound 19, 6″-Malonylapiin] | 63.2% | –
7 | COc1cc(-c2cc(=O)c3c(O)cc(OC4OC(COC(=O)CC(=O)O)C(O)C(O)C4OC4OCC(O)(CO)C4O)cc3o2)ccc1O (stereo not drawn) [Compound 20, Chrysoeriol 7-O-6″-malonyl apiosylglucoside] | 52.0% | –
8 | O=c1cc(-c2ccc(O)c(O)c2)oc2cc(O)cc(O)c12 [Compound 21, Luteolin] | 97.8% | 69.2 µM
9 | O=c1cc(-c2ccc(O)cc2)oc2cc(O)cc(O)c12 [Compound 24, Apigenin] | 95.5% | 93 µM and 92.6 µM
10 | COc1cc(-c2cc(=O)c3c(O)cc(O)cc3o2)ccc1O [Compound 25, Chrysoeriol] | 96.7% | –
